Data published in US7579469B2, “Glucocorticoid mimetics, methods of making them, pharmaceutical compositions, and uses thereof” (Boehringer Ingelheim Pharmaceuticals, Inc., priority 2003, dated 2009).

What follows are compounds tested against T1, human glucocorticoid receptor (GR) complex (Homo sapiens, UniProt P04150) (assay: Glucocorticoid receptor competitive binding assay (fluorescence polarization)). Conditions: competition with TAMRA-labeled dexamethasone.
T1 construct: made in house; host or cells: insect expression system (baculovirus lysate)
T1 sequence (P04150 1-777): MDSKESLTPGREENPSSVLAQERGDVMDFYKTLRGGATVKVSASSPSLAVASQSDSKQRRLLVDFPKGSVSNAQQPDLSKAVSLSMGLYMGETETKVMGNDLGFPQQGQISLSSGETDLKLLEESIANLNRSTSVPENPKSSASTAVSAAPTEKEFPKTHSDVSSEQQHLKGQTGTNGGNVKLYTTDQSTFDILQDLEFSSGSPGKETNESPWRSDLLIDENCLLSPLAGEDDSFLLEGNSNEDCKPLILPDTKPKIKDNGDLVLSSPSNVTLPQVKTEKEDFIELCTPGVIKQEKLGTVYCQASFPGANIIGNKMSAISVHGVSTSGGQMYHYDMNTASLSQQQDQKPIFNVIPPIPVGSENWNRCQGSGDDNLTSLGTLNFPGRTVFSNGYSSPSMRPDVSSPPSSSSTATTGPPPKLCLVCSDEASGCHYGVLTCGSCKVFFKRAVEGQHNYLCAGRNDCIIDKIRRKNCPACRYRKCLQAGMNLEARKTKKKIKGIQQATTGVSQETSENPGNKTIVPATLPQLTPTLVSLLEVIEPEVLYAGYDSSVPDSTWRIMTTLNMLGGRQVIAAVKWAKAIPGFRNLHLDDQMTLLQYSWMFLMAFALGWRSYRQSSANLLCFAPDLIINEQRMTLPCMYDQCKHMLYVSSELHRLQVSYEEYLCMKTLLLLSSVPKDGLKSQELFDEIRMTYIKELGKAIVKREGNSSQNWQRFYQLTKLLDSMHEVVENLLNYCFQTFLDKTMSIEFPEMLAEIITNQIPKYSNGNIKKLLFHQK
Experimental: Compounds of the invention were evaluated for binding to the steroid receptor by a fluorescence polarization competitive binding assay.
A. Glucocorticoid Receptor Competitive Binding Assay
Step 1. Characterization of the Fluorescent Probe
The wavelengths for maximum excitation and emission of the fluorescent probe should first be measured. An example of such a probe is rhodamine (TAMRA)-labeled dexamethasone.
The affinity of the probe for the steroid receptor was then determined in a titration experiment. The fluorescence polarization value of the probe in assay buffer was measured on an SLM-8100 fluorometer using the excitation and emission maximum values described above. Aliquots of expression vector lysate were added and fluorescence polarization was measured after each addition until no further change in polarization value was observed. Non-linear least squares regression analysis was used to calculate the dissociation constant of the probe from the polarization values obtained for lysate binding to the probe.
Step 2. Screening for Inhibitors of Probe Binding
This assay uses fluorescence polarization (FP) to quantitate the ability of test compounds to compete with tetramethyl rhodamine (TAMRA)-labeled dexamethasone for binding to a human glucocorticoid receptor (GR) complex prepared from an insect expression system. The assay buffer was: 10 mM TES, 50 mM KCl, 20 mM Na2MoO4.2H20, 1.5 mM EDTA, 0.04% w/v CHAPS, 10% v/v glycerol, 1 mM dithiothreitol, pH 7.4. Test compounds were dissolved to 1 mM in neat DMSO and then further diluted to 10× assay concentration in assay buffer supplemented with 10% v/v DMSO. Test compounds were serially diluted at 10× assay concentrations in 10% DMSO-containing buffer in 96-well polypropylene plates. Binding reaction mixtures were prepared in 96-well black Dynex microtiter plates by sequential addition of the following assay components to each well: 15 μL of 10× test compound solution, 85 μL of GR-containing baculovirus lysate diluted 1:170 in assay buffer, and 50 μL of 15 nM TAMRA-labeled dexamethasone. Positive controls were reaction mixtures containing no test compound; negative controls (blanks) were reaction mixtures containing 0.7 μM to 2 μM dexamethasone. […] IC50 values were determined by iterative non-linear curve fitting of the FP signal data to a 4-parameter logistic equation.
With CSc1cc2c(c(C(C)(C)CC(O)(Cn3ccc(=O)c4ccccc43)C(F)(F)F)c1)OCC2 (stereo not drawn) [1-[2-Hydroxy-4-methyl-4-(5-methylsulfanyl-2,3-dihydrobenzofuran-7-yl)-2-trifluoromethylpentyl]-1H-quinolin-4-one] the “activity in the GR binding assay” value was “potent activity”.
With CC1(CC(O)(Cn2ccc(=O)c3ccccc32)C(F)(F)F)CCOc2ccc(F)cc21 (stereo not drawn) [1-[3,3,3-Trifluoro-2-(6-fluoro-4-methylchroman-4-ylmethyl)-2-hydroxypropyl]-1H-quinolin-4-one] the “activity in the GR binding assay” value was “potent activity”.
In the case of Cc1cn(CC(O)(CC(C)(C)c2cccc3c2OCC3)C(F)(F)F)c(CO)c(C)c1=O (stereo not drawn) [1-[4-(2,3-Dihydrobenzofuran-7-yl)-2-hydroxy-4-methyl-2-trifluoromethylpentyl]-2-hydroxymethyl-3,5-dimethyl-1H-pyridin-4-one], the “activity in the GR binding assay” value is reported as “potent activity”.
In the case of Cc1cn(CC(O)(CC(C)(C)c2cccc3c2OCC3)C(F)(F)F)c2ccccc2c1=O (stereo not drawn) [1-[4-(2,3-Dihydrobenzofuran-7-yl)-2-hydroxy-4-methyl-2-trifluoromethylpentyl]-3-methyl-1H-quinolin-4-one], the “activity in the GR binding assay” value is reported as “potent activity”.
CCOc1ccc(F)cc1C(C)(C)CC(O)(Cn1ccc(=O)c2ccccc21)C(F)(F)F (stereo not drawn) [1-[4-(2-Ethoxy-5-fluorophenyl)-2-hydroxy-4-methyl-2-trifluoromethylpentyl]-1H-quinolin-4-one] was tested, and the “activity in the GR binding assay” value was “potent activity”.
In the case of CC(=O)c1cccc(C(C)(C)CC(O)(Cn2ccc(=O)c3ccccc32)C(F)(F)F)c1 (stereo not drawn) [1-[4-(3-Acetylphenyl)-2-hydroxy-4-methyl-2-trifluoromethylpentyl]-1H-quinolin-4-one], the “activity in the GR binding assay” value is reported as “potent activity”.
CC(C)(CC(O)(Cn1ccc(=O)c2ccccc21)C(F)(F)F)c1cccc(Br)c1 (stereo not drawn) [1-[4-(3-Bromophenyl)-2-hydroxy-4-methyl-2-trifluoromethylpentyl]-1H-quinolin-4-one] was tested, and the “activity in the GR binding assay” value was “potent activity”.
With CC(C)(CC(O)(Cn1ccc(=O)c2ccccc21)C(F)(F)F)c1ccc(O)c(F)c1 (stereo not drawn) [1-[4-(3-Fluoro-4-hydroxyphenyl)-2-hydroxy-4-methyl-2-trifluoromethylpentyl]-1H-quinolin-4-one] the “activity in the GR binding assay” value was “potent activity”.
With COc1ccc(C(C)(C)CC(O)(Cn2ccc(=O)c3ccccc32)C(F)(F)F)cc1F (stereo not drawn) [1-[4-(3-Fluoro-4-methoxyphenyl)-2-hydroxy-4-methyl-2-trifluoromethylpentyl]-1H-quinolin-4-one] the “activity in the GR binding assay” value was “potent activity”.
Cc1ccc(C(C)(C)CC(O)(Cn2ccc(=O)c3ccccc32)C(F)(F)F)cc1F (stereo not drawn) [1-[4-(3-Fluoro-4-methylphenyl)-2-hydroxy-4-methyl-2-trifluoromethylpentyl]-1H-quinolin-4-one] was tested, and the “activity in the GR binding assay” value was “potent activity”.
CC(C)(CC(O)(Cn1ccc(=O)c2ccccc21)C(F)(F)F)c1cccc(F)c1 (stereo not drawn) [1-[4-(3-Fluorophenyl)-2-hydroxy-4-methyl-2-trifluoromethylpentyl]-1H-quinolin-4-one] was tested, and the “activity in the GR binding assay” value was “potent activity”.
With CC(C)(CC(O)(Cn1ccc(=O)c2ccccc21)C(F)(F)F)c1cccc(C2OCCCO2)c1 (stereo not drawn) [1-[4-(3-[1,3]Dioxan-2-ylphenyl)-2-hydroxy-4-methyl-2-trifluoromethylpentyl]-1H-quinolin-4-one] the “activity in the GR binding assay” value was “potent activity”.
In the case of CC(C)(CC(O)(Cn1ccc(=O)c2ccccc21)C(F)(F)F)c1ccc(F)cc1 (stereo not drawn) [1-[4-(4-Fluorophenyl)-2-hydroxy-4-methyl-2-trifluoromethylpentyl]-1H-quinolin-4-one], the “activity in the GR binding assay” value is reported as “potent activity”.
For COc1ccc(C(C)=O)cc1C(C)(C)CC(O)(Cn1ccc(=O)c2ccccc21)C(F)(F)F (stereo not drawn) [1-[4-(5-Acetyl-2-methoxyphenyl)-2-hydroxy-4-methyl-2-trifluoromethylpentyl]-1H-quinolin-4-one], the “activity in the GR binding assay” value was “potent activity”.
CC(C)(CC(O)(Cn1ccc(=O)c2ccccc21)C(F)(F)F)c1cc(Br)ccc1O (stereo not drawn) [1-[4-(5-Bromo-2-hydroxyphenyl)-2-hydroxy-4-methyl-2-trifluoromethylpentyl]-1H-quinolin-4-one] was tested, and the “activity in the GR binding assay” value was “potent activity”.
For COc1ccc(Br)cc1C(C)(C)CC(O)(Cn1ccc(=O)c2ccccc21)C(F)(F)F (stereo not drawn) [1-[4-(5-Bromo-2-methoxyphenyl)-2-hydroxy-4-methyl-2-trifluoromethylpentyl]-1H-quinolin-4-one], the “activity in the GR binding assay” value was “potent activity”.
With CC(C)(CC(O)(Cn1ccc(=O)c2ccccc21)C(F)(F)F)c1cc(Cl)cc2c1OCC2 (stereo not drawn) [1-[4-(5-Chloro-2,3-dihydrobenzofuran-7-yl)-2-hydroxy-4-methyl-2-trifluoromethylpentyl]-1H-quinolin-4-one] the “activity in the GR binding assay” value was “potent activity”.
For CC(C)(CC(O)(Cn1[nH]c(=O)c2ccccc21)C(F)(F)F)c1cc(F)ccc1O (stereo not drawn) [1-[4-(5-Fluoro-2-hydroxyphenyl)-2-hydroxy-4-methyl-2-trifluoromethylpentyl]-1,2-dihydroindazol-3-one], the “activity in the GR binding assay” value was “potent activity”.
In the case of CC(C)(CC(O)(Cn1ccc(=O)c2ncccc21)C(F)(F)F)c1cc(F)ccc1O (stereo not drawn) [1-[4-(5-Fluoro-2-hydroxyphenyl)-2-hydroxy-4-methyl-2-trifluoromethylpentyl]-1H-[1,5]naphthyridin-4-one], the “activity in the GR binding assay” value is reported as “potent activity”.
For Cc1cn(CC(O)(CC(C)(C)c2cc(F)ccc2O)C(F)(F)F)c(CO)c(C)c1=O (stereo not drawn) [1-[4-(5-Fluoro-2-hydroxyphenyl)-2-hydroxy-4-methyl-2-trifluoromethylpentyl]-2-hydroxymethyl-3,5-dimethyl-1H-pyridin-4-one], the “activity in the GR binding assay” value was “potent activity”.
With Cc1cn(CC(O)(CC(C)(C)c2cc(F)ccc2O)C(F)(F)F)cc(C)c1=O (stereo not drawn) [1-[4-(5-Fluoro-2-hydroxyphenyl)-2-hydroxy-4-methyl-2-trifluoromethylpentyl]-3,5-dimethyl-1H-pyridin-4-one] the “activity in the GR binding assay” value was “potent activity”.
For CC(C)(CC(O)(Cn1cc(CO)c(=O)c2ccccc21)C(F)(F)F)c1cc(F)ccc1O (stereo not drawn) [1-[4-(5-Fluoro-2-hydroxyphenyl)-2-hydroxy-4-methyl-2-trifluoromethylpentyl]-3-hydroxymethyl-1H-quinolin-4-one], the “activity in the GR binding assay” value was “potent activity”.
COc1ccc(F)cc1C(C)(C)CC(C)(O)Cn1cc(C)c(=O)c(C)c1 (stereo not drawn) [1-[4-(5-Fluoro-2-methoxyphenyl)-2-hydroxy-2,4-dimethylpentyl]-3,5-dimethyl-1H-pyridin-4-one] was tested, and the “activity in the GR binding assay” value was “potent activity”.
COc1ccc(F)cc1C(C)(C)CC(O)(Cn1[nH]c(=O)c2ccccc21)C(F)(F)F (stereo not drawn) [1-[4-(5-Fluoro-2-methoxyphenyl)-2-hydroxy-4-methyl-2-trifluoromethylpentyl]-1,2-dihydroindazol-3-one] was tested, and the “activity in the GR binding assay” value was “potent activity”.
With COc1ccc(F)cc1C(C)(C)CC(O)(Cn1ncc(=O)c2ccccc21)C(F)(F)F (stereo not drawn) [1-[4-(5-Fluoro-2-methoxyphenyl)-2-hydroxy-4-methyl-2-trifluoromethylpentyl]-1H-cinnolin-4-one] the “activity in the GR binding assay” value was “potent activity”.
In the case of COc1ccc(F)cc1C(C)(C)CC(O)(Cn1ccc(=O)c2ccccc21)C(F)(F)F (stereo not drawn) [1-[4-(5-Fluoro-2-methoxyphenyl)-2-hydroxy-4-methyl-2-trifluoromethylpentyl]-1H-quinolin-4-one], the “activity in the GR binding assay” value is reported as “potent activity”.
COc1ccc(F)cc1C(C)(C)CC(O)(Cn1cc(C)c(=O)c(C)c1CO)C(F)(F)F (stereo not drawn) [1-[4-(5-Fluoro-2-methoxyphenyl)-2-hydroxy-4-methyl-2-trifluoromethylpentyl]-2-hydroxymethyl-3,5-dimethyl-1H-pyridin-4-one] was tested, and the “activity in the GR binding assay” value was “potent activity”.
